Laboratory results taken from PMC11726150, “Pre‐ADMET studies of 5‐(3′,4′‐dihydroxyphenyl)‐γ‐valerolactone, the bioactive intestinal metabolite of proanthocyanidins” (Archiv Der Pharmazie, 2024).
“And” between values parts separate entries of the source, which are not always exact repeats. Equal values may be shown once. Where a name gives a salt, the structure may show the parent alone.

Columns and labels:
[1] = target: T1, P‐gp (Homo sapiens, UniProt P08183); assay: Rhodamine‐123 uptake assay, inhibition, differentiated Caco2 cells; type: cell-based; conditions: VL initial concentration 50 and 25 µM, 90 min
T1 construct: P‐gp modulation was determined in differentiated Caco2 cells by Rh‐123 uptake assay; endogenous in cells; host or cells: differentiated Caco2 cells (21 days)
T1 sequence (P08183 whole entry): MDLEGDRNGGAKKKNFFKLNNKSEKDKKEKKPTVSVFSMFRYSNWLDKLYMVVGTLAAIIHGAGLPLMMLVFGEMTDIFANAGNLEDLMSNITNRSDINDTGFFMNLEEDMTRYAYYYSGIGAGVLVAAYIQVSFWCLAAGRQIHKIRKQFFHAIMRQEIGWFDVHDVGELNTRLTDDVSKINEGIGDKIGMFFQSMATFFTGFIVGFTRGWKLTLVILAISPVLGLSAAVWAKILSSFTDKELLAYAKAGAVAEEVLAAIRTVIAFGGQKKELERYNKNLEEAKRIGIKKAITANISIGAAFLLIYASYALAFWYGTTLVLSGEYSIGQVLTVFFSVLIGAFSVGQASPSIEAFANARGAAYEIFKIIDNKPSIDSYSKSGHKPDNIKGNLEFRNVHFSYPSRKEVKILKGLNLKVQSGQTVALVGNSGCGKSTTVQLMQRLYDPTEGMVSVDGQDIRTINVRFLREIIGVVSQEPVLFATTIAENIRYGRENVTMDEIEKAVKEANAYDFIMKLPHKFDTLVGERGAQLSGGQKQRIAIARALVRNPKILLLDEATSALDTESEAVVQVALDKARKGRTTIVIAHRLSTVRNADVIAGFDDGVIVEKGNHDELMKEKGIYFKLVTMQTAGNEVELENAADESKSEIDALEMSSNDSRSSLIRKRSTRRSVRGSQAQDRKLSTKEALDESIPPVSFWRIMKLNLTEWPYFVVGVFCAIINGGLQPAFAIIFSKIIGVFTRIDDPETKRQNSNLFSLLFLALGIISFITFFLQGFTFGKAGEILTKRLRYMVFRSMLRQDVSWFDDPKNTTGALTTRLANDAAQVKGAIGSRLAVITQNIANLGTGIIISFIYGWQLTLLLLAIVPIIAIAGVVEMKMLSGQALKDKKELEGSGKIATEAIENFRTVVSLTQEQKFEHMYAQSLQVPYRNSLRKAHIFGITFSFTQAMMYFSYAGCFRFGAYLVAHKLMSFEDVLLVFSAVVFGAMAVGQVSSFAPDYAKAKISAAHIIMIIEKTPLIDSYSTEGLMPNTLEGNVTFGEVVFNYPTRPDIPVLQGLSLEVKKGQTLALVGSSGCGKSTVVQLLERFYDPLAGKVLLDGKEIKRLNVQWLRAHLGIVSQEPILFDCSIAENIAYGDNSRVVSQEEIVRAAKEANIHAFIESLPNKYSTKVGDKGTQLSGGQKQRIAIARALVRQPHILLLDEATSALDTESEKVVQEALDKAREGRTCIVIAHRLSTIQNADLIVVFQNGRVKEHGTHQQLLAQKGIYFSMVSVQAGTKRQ
Description: To evaluate P‐gp inhibition on day 21, the medium was removed and 200 μL Hank's salt solution was added, the plate was then incubated for 40 min. […] After treatment cells were washed three times with ice‐cold PBS, and 200 μL of lysis buffer (0.1% Triton X 100 and 0.2 N NaOH) was added. The plate was kept on a shaker for 2 h at room temperature, and 100 μL of lysate was used to measure the Rh‐123 fluorescence at 485/529 nm. Further, 10 μL of lysate was taken in a separate 96‐well plate, and 190 μL Bradford reagent was added. The plate was shaken for 5–10 min, and absorbance was measured at 595 nm. Each sample was normalized by dividing the fluorescence of each sample by the total proteins present in the lysate.^[ [46] ^]

[2] = test system: P‐gp; assay: Rhodamine‐123 uptake assay, induction (48 h), differentiated Caco2 cells; type: cell-based, human; conditions: 2.5 to 10 µM, 48 h treatment
Description: P‐gp modulation was determined in differentiated Caco2 cells by Rh‐123 uptake assay.^[ [49] ^] In brief, cells in the logarithmic growth phase with 70%–80% confluency were harvested and seeded at a density of 2 × 10^4/well of a 96‐well plate. Cells were allowed to grow for 21 days in a CO2 incubator changing the medium every other day.
After treatment, cells were washed with Hank's buffer and 200 μL of phenol, and serum‐free DMEM/F12 medium containing […] of Rh‐123 was added and cells were incubated for 90 min. The final steps were as described previously.

[3] = target: T2, BCRP (Homo sapiens, UniProt Q9UNQ0); assay: Rhodamine‐123 uptake assay, cotreatment with elacridar, differentiated Caco2 cells; type: cell-based; conditions: at higher doses
T2 construct: performing the Rh‐123 uptake‐based efflux assay in the differentiated Caco2 cell line; endogenous in cells; host or cells: differentiated Caco2 cells (21 days)
T2 sequence (Q9UNQ0 1-655): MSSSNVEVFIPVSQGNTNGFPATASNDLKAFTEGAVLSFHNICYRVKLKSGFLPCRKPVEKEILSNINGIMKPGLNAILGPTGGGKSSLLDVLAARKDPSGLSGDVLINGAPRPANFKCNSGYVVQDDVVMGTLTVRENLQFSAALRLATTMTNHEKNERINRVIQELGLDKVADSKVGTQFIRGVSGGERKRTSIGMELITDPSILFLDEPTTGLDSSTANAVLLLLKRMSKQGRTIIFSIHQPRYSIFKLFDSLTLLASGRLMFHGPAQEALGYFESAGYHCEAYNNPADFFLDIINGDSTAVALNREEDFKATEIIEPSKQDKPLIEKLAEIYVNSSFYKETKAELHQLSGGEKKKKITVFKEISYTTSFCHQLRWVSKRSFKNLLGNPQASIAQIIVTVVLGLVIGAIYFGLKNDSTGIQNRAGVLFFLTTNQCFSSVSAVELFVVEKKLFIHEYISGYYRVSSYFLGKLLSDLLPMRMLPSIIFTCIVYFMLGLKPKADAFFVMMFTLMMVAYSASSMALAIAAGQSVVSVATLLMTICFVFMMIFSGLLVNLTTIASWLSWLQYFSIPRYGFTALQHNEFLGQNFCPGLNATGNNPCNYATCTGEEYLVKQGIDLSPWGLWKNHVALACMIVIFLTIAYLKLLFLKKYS

[4] = In vitro transport study across 21‐day Caco2 monolayers; type: in vitro ADME, human; conditions: human, Caco-2, Caco2 model, N = 4
Description: (§1) Caco2 cells between passage numbers 42–50 and MDCK cells between passage numbers 21–26 were used for transport studies; the assay was conducted as reported by Volpe^[ [33] ^] with slight modifications. Transport experiments were performed in 12‐well Transwell plates. Caco2 cells were seeded at a density of 60,000 cells/cm^2 and grown for 21 days, with change of media every 3 days, while MDCK cells were seeded at a density of 70,000 cells/cm^2 and grown for 5 days, changing the medium daily. The physiological and morphological formation of a confluent monolayer was evaluated by measuring the TEER value: Caco2 monolayers became confluent 1 week after seeding with TEER values greater than 450 Ω/cm^2, while MDCK monolayers became confluent 24 h after seeding with TEER values greater than 90 Ω/cm^2. Phenol red and serum‐free DMEM/F12 medium was used as transport buffer. For bidirectional transport, VL (50 μM) and control compound (propranolol and paclitaxel, 10 μM) were added to the apical side to determine apical to basolateral transport (A–B; absorptive direction) and to the basal side to determine basolateral to apical transport (B–A; secretory direction). The volume of the apical and basolateral chambers was 0.5 and 1.5 mL, respectively. Aliquots of 120 μL were taken from the basolateral (for A–B transport) or the apical (for B–A transport) chamber at 30, 60, 90, and 120 min. An equal volume was replaced with a transport buffer at every time point. At the beginning and at the end of the experiment, an aliquot was also taken from the apical or basolateral chamber for analysis of the drug. To determine the integrity of monolayers, TEER values were measured before and after the experiment. In addition, at the end of the experiment cells were collected and lysed to evaluate the compound intake. Briefly, cells were washed twice with cold PBS and 200 µL of cold MeOH was added to detach and lysate the cells; subsequently, cells were collected into lo‐bind Eppendorf and sonicated in ice for 10 min, then centrifuged for 15 min at 4°C at 14,000 rpm (Eppendorf Centrifuge 5430 R). The supernatant was collected and used for further analysis.
(§2) The apparent permeability P app (cm/s) of compounds was calculated from the following equation (Equation 1), while P app (cm/s) of the metabolites was calculated from the equation (Equation 2): (1) Papp=dQ/dt×1/C×1/A.
(§3) Equation (1) for calculating P app (cm/s) of tested reference compounds. (2) Papp=Metabolic cleareance/A.
(§4) Equation (2) for calculating P app (cm/s) of compound metabolites.
(§5) with Metabolic cleareance=Rate of metabolism/C and where dQ/dt is the rate of transport, C is the initial concentration in the donor compartment, and A is the surface area of the filter. To quantify the rate of transport, cumulative amounts of test compounds were plotted against time (min).
(§6) Efflux ratio was calculated using the following equation (Equation 3)^[ [48] ^]: (3) Efflux ratio=Papp(B−A)/Papp(A−B).

[5] = test system: Caco2 monolayers; assay: as above; type: in vitro ADME, human; conditions: Caco2 model, VL 50 μM dosed (VLS formed as metabolite), controls 10 μM, N = 4
Description: as §1, §2, §3, §4, §5, §6

[6] = In vitro transport study across 5‐day Wt‐MDCK monolayers; type: in vitro ADME, canine; conditions: dog; Wt‐MDCK model; Papp(B−A)/Papp(A−B); N = 4; read-out: Efflux ratio (mean ± SD)
Description: as §1, §2, §3, §4, §5, §6

[7] = test system: Wt‐MDCK monolayers; assay: as above; type: in vitro ADME, canine; conditions: Wt‐MDCK model, VL 50 μM dosed (VLS formed as metabolite), controls 10 μM, N = 4
Description: as §1, §2, §3, §4, §5, §6

Rh‐123 uptake in cotreatment with CsA 20 µM [1]: nonsignificant results
Papp A→B at 120 min ([4]; absorptive direction, VL 50 μM dosed (VLS formed as metabolite), controls 10 μM, read-out: P app A–B (mean ± SD)): 22.3 ×10⁻⁶ cm/s
Papp B→A at 120 min ([4]; secretory direction, VL 50 μM dosed (VLS formed as metabolite), controls 10 μM, read-out: P app B–A (mean ± SD)): 55.4 ×10⁻⁶ cm/s
efflux ratio at 120 min ([4]; Papp(B−A)/Papp(A−B), read-out: Efflux ratio (mean ± SD)): 2.35 ± 0.341
P app A–B (mean ± SD) ([5]; absorptive direction): 22.25 ×10⁻⁶ cm/s
P app B–A (mean ± SD) ([5]; secretory direction): 55.35 ×10⁻⁶ cm/s
efflux ratio at 120 min [6]: 0.843 ± 0.105
P app B–A (mean ± SD) ([7]; secretory direction): 14.43 ×10⁻⁶ cm/s
SMILES: O=C1CCC(Cc2ccc(O)c(OS(=O)(=O)O)c2)O1 (centres unmarked) [VLS, valerolactone sulfate]
P‐gp induction [2]: no significant data of P‐gp induction
effect on BCRP efflux transporter [3]: slightly activates the BCRP efflux transporter
P app A–B (mean ± SD) ([7]; absorptive direction): 17.33 ×10⁻⁶ cm/s and 173.3 ± 25 ×10⁻⁶ cm/s
